Assay results published in ChEMBL document CHEMBL1126477 (Bioorg Med Chem Lett, 1993).

What was measured:
Angiotensin II receptor = target: T1, Angiotensin II receptor (Rattus norvegicus, UniProt P29089+P25095+P35351); test: Angiotensin II receptor antagonist activity was determined by 50% inhibition of specific binding of [3H]angiotensin II (2 nM) to rat adrenal cortical microsomes
T1 sequence (P29089 whole entry): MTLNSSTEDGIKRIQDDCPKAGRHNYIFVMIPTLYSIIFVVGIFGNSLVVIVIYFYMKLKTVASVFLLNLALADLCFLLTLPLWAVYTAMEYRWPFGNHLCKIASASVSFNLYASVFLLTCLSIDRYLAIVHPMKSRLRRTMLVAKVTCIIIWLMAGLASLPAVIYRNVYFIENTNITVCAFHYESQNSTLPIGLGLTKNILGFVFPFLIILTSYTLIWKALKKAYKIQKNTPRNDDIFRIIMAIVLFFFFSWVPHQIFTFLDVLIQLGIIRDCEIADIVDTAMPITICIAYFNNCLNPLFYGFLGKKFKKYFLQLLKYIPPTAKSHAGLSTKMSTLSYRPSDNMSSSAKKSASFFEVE
T1 sequence (P25095 whole entry): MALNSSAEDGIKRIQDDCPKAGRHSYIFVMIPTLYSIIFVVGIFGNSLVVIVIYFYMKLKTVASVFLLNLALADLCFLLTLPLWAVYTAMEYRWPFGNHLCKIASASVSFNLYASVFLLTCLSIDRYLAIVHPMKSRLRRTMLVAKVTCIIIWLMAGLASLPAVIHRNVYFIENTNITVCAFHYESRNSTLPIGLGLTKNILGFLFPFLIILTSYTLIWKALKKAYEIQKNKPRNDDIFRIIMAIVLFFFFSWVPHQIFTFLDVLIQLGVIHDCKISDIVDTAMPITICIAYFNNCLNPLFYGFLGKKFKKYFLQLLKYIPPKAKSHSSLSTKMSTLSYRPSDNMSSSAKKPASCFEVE
T1 sequence (P35351 whole entry): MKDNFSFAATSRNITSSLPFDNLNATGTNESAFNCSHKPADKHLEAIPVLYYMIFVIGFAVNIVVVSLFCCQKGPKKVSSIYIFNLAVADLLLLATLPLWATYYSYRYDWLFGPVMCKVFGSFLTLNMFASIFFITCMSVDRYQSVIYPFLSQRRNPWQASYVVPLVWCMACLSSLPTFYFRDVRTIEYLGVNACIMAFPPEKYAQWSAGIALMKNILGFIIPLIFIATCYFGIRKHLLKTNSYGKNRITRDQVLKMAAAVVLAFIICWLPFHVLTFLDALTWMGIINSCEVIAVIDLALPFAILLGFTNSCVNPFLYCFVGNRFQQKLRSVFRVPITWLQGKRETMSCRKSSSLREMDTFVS

Rattus norvegicus [1] = test: The compound was tested for antihypertensive activity in renal hypertensive rat after intravenous administration; format: functional
Rattus norvegicus [2] = test: The compound was tested for antihypertensive activity in renal hypertensive rat after oral administration; format: functional

SMILES	IC50 (Angiotensin II receptor)	ED30 (Rattus norvegicus [1])	ED30 (Rattus norvegicus [2])
CCCc1nc(C(F)(F)C(F)(F)C(F)(F)C(F)(F)C(F)(F)C(F)(F)F)c(CO)n1Cc1ccc(-c2ccccc2C(=O)O)cc1	2500 nM	–	–
CCCc1nc(C(F)(F)C(F)(F)C(F)(F)F)c(CO)n1Cc1ccc(-c2ccccc2C(=O)O)cc1	74 nM	–	–
CCCc1nc(C(F)(F)C(F)(F)F)c(C(=O)O)n1Cc1ccc(-c2ccccc2-c2nn[nH]n2)cc1	–	0.042 mg/kg	0.21 mg/kg
CCCc1nc(C(F)(F)C(F)(F)F)c(CO)n1Cc1ccc(-c2ccccc2-c2nn[nH]n2)cc1	1.2 nM	–	–
CCCc1nc(C(F)(F)F)c(C(=O)O)n1Cc1ccc(-c2ccccc2-c2nn[nH]n2)cc1	–	0.01 mg/kg	0.79 mg/kg
CCCc1nc(C(F)(F)F)c(CO)n1Cc1ccc(-c2ccccc2-c2nn[nH]n2)cc1	6.4 nM	–	–
CCCc1nc(C(F)(F)F)c(CO)n1Cc1ccc(-c2ccccc2C(=O)O)cc1	130 nM	–	–
CCCc1nc(C(F)(F)C(F)(F)C(F)(F)F)c(CO)n1Cc1ccc(-c2ccccc2-c2nn[nH]n2)cc1	13 nM	–	–
CCCc1nc(C(F)(F)C(F)(F)F)c(CO)n1Cc1ccc(-c2ccccc2C(=O)O)cc1	48 nM	–	–
CCCCc1nc(Cl)c(C(=O)O)n1Cc1ccc(-c2ccccc2-c2nn[nH]n2)cc1 [CARBOXYLIC ACID METABOLITE]	–	0.038 mg/kg	0.66 mg/kg
CCCc1nc(C(F)(F)C(F)(F)C(F)(F)F)c(C(=O)O)n1Cc1ccc(-c2ccccc2-c2nn[nH]n2)cc1	–	0.62 mg/kg	–
CCCc1nc(C(F)(F)C(F)(F)C(F)(F)C(F)(F)F)c(CO)n1Cc1ccc(-c2ccccc2C(=O)O)cc1	290 nM	–	–
